Experimental data from ChEMBL document CHEMBL3988442, “University of Dundee, Small-Polar-MMV Screening Library” (2021).
Where “and” joins values, the source holds several entries; their conditions need not be identical. Identical values can stand only once.

What was measured:
[1] = target: Chromo domain-containing protein 1 (Saccharomyces cerevisiae (strain ATCC 204508 / S288c) (Baker's yeast), UniProt P32657); experiment: ScCHD-1 Enzyme Inhibition Assay; type: functional
Histidine--tRNA ligase = target: T1, Histidine--tRNA ligase (Leishmania infantum, UniProt A4I591); experiment: Leishmania infantum Histidine tRNA synthetase (LdHisRS); type: functional
T1 sequence (A4I591 whole entry): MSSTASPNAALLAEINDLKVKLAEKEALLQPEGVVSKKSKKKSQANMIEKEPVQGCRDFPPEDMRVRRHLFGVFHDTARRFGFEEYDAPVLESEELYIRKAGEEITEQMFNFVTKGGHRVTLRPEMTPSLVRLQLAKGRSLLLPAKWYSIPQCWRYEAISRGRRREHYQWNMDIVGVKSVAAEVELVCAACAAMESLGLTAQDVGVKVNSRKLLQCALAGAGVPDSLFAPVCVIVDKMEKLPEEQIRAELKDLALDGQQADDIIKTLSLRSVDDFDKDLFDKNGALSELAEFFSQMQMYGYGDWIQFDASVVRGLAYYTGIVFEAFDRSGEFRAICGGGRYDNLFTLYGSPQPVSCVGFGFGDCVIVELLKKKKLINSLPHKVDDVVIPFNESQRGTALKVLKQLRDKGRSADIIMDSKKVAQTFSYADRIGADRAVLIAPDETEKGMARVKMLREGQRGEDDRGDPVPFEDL

[2] = target: T2, Ubiquitin-activating enzyme e1, putative (Leishmania donovani (strain BPK282A1), UniProt E9BSI1); experiment: Leishmania donovani Ubiquitin Activating Enzyme (LdE1); type: functional
T2 sequence (E9BSI1 whole entry): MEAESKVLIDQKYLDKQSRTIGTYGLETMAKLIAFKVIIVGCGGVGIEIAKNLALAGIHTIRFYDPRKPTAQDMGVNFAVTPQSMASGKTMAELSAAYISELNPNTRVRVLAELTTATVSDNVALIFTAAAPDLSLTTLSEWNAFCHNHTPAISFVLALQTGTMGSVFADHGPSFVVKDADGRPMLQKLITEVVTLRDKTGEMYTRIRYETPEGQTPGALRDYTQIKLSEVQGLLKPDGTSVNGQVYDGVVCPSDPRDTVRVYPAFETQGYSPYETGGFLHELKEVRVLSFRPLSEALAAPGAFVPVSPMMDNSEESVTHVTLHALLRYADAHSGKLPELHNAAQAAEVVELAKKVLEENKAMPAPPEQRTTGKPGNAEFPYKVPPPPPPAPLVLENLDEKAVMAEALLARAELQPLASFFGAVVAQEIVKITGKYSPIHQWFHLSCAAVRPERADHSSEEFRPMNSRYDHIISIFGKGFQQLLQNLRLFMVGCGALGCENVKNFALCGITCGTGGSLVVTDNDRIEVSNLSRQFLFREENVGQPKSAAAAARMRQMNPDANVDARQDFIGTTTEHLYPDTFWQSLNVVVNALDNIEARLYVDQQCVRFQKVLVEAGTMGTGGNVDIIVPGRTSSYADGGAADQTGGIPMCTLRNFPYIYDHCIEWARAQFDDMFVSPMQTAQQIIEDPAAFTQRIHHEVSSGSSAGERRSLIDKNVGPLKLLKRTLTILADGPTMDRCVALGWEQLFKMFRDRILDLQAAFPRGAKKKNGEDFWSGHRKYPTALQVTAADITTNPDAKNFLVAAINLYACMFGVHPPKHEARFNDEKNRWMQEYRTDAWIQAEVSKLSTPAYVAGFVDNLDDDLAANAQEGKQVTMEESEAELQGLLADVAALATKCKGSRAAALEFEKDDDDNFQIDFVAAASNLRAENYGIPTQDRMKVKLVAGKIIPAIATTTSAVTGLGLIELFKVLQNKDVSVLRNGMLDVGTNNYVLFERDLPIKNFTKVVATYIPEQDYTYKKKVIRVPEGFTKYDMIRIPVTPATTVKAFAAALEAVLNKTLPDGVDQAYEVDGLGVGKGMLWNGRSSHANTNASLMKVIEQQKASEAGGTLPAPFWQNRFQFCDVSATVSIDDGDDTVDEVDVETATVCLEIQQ

Lysine--tRNA ligase = Lysine--tRNA ligase (Plasmodium falciparum (isolate 3D7), UniProt Q8IDJ8); experiment: Pf-KRS-1 (Lysyl-RNA Synthetase-1, KRS-1, cytosolic KRS) from Plasmodium falciparum. Inhibitor assay, 384 well plate, luminescence read.; type: functional
ClpP1P2 = ClpP1P2 (Mycobacterium tuberculosis (strain ATCC 25618 / H37Rv), UniProt P9WPC3+P9WPC5); experiment: in vitro assay to detect presence of AMC directly proportional to the activity of ClpP1P2. GHDDI collaboration.; type: functional
Tryptophan--tRNA ligase = Tryptophan--tRNA ligase (Mycobacterium tuberculosis (strain ATCC 25618 / H37Rv), UniProt P9WFT3); experiment: Biochemical assay for Mt-TrpRS; type: functional
[3] = system: Mycobacterium tuberculosis; experiment: Cornell M. t heat shock assay; type: functional, organism-based; settings: Mycobacterium tuberculosis
Leishmania donovani = experiment: Leishmania intramacrophage assay; type: functional, organism-based; settings: Leishmania donovani
[4] = target: Polyketide synthase Pks13 (Mycobacterium tuberculosis (strain ATCC 25618 / H37Rv), UniProt I6X8D2); experiment: Mycobacterium tuberculosis Polyketide synthase 13 Thioesterase (PKS13); type: functional

## COCCn1ccc(NC(=O)Nc2ccc(C(N)=O)c(F)c2)n1
[1]
  IC50: > 29.5 µM

## Cn1ccc(NC(=O)Cc2cccc(F)c2)n1
[1]
  IC50: > 29.5 µM

## Cc1cc(C)n(CC2CN(Cc3cccc(C(N)=O)c3)CCO2)n1 (configuration not stated)
[1]
  IC50: > 29.5 µM

## CNc1cc(N2CCCC2CNCc2ccc(Cl)o2)ncn1 (configuration not stated)
[1]
  IC50: > 29.5 µM

## O=C(c1ccnnc1)N1C[C@@H](OCC2CCOCC2)[C@H]2OCCC[C@H]21
[1]
  IC50: > 29.5 µM

## CN(C(=O)c1ccccn1)c1nc2c(s1)CCc1c-2cnn1C
Histidine--tRNA ligase
  IC50: 30.7 µM and 23.3 µM
[2]
  IC50: > 100 µM

## CCCN(C(=O)COC)c1nc2c(s1)CCc1c-2cnn1C
Histidine--tRNA ligase
  IC50: 7.02 µM and 8.63 µM
Lysine--tRNA ligase
  IC50: > 50.1 µM
[2]
  IC50: > 100 µM

## Cc1nc(C)n(CC2CCCN2Cc2ncc(-c3ccccc3)o2)n1 (configuration not stated)
ClpP1P2
  IC50: > 100 µM
[2]
  IC50: > 100 µM

## NC(=O)c1ccc(CNC(=O)Nc2cn[nH]c2)cc1
Tryptophan--tRNA ligase
  IC50: > 195 µM
[2]
  IC50: > 100 µM

## CCn1nc2c(cc1=O)CN(Cc1coc(-c3ccccc3)n1)CC2
[2]
  IC50: > 100 µM

## Cn1nc2c(cc1=O)CN(Cc1coc(-c3ccccc3)n1)CC2
[2]
  IC50: > 100 µM

## Cc1ccc(-c2nnc(CN3CCc4nn(C)c(=O)cc4C3)o2)cc1
Histidine--tRNA ligase
  IC50: 10.5 µM and 12.1 µM
[2]
  IC50: > 100 µM

## Cn1nc2c(cc1=O)CN(Cc1coc(-c3ccc(F)cc3)n1)CC2
Histidine--tRNA ligase
  IC50: 16.5 µM and 18.8 µM
[2]
  IC50: > 100 µM

## Cn1nc2c(cc1=O)CN(Cc1coc(-c3cccc(F)c3)n1)CC2
Histidine--tRNA ligase
  IC50: 17 µM and 14.3 µM
[2]
  IC50: > 100 µM

## CCc1nc2n(n1)CC(NCc1nnc(C(C)C)o1)CC2 (configuration not stated)
[2]
  IC50: > 100 µM

## CC(C)c1nc2n(n1)CC(NCc1nnc(C3CC3)o1)CC2 (configuration not stated)
[2]
  IC50: > 100 µM

## CCc1nnc(CNC2CCc3nc(C(C)C)nn3C2)o1 (configuration not stated)
[3]
  IC50: > 100 µM
[2]
  IC50: > 100 µM

## CC(C)c1nc2n(n1)CC(NCc1ncc(C(C)(C)C)o1)CC2 (configuration not stated)
[2]
  IC50: > 100 µM

## Cn1nc2c(cc1=O)CN(Cc1nc(C3CC3)no1)CC2
Histidine--tRNA ligase
  IC50: 23.8 µM and 20.7 µM
[2]
  IC50: > 100 µM

## CC(NC(=O)NCCNc1cnccn1)c1cccs1 (configuration not stated)
Leishmania donovani
  IC50: > 50.1 µM
[2]
  IC50: > 100 µM

## CNS(=O)(=O)Cc1ccc(CNC(=O)Nc2cn[nH]c2)cc1
Lysine--tRNA ligase
  IC50: > 50.1 µM
[2]
  IC50: > 100 µM

## CN(C)c1ccc(C(=O)N2CCN(C(=O)N3CCCCC3)CC2)nn1
[2]
  IC50: > 100 µM
[4]
  IC50: > 100 µM

## Cc1nc(CN2CCCN(C(=O)C(C)OCC3CC3)CC2)cs1 (configuration not stated)
[2]
  IC50: > 100 µM

## Cc1ccc(-c2nc(CN3CCc4nn(C)c(=O)cc4C3)no2)cc1
Histidine--tRNA ligase
  IC50: 72.7 µM and 85.3 µM
[2]
  IC50: > 100 µM

## Cn1nc2c(cc1=O)CN(Cc1nnc(-c3ccco3)o1)CC2
Histidine--tRNA ligase
  IC50: 44 µM and 59.9 µM
[2]
  IC50: > 100 µM

## Cn1nc2c(cc1=O)CN(Cc1nnc(-c3ccc(F)cc3)o1)CC2
Histidine--tRNA ligase
  IC50: 83.1 µM and 70.4 µM
[2]
  IC50: > 100 µM

## Cc1ccc(CNC(=O)CN2CCN(CC(O)C3CC3)CC2)cc1 (configuration not stated)
[1]
  IC50: > 29.5 µM

## O=C(NC1CC1)[C@H]1CC[C@@H]2[C@@H](CCN2c2ncc(F)cn2)O1
[1]
  IC50: > 29.5 µM

## CC(C)CN1C[C@H]2CCN(c3ncccn3)CC[C@H]2S1(=O)=O
[1]
  IC50: > 29.5 µM

## Cc1ccc(C(=O)N2CCn3cc(CN(C)Cc4ccco4)nc3C2)o1
[1]
  IC50: > 29.5 µM

## Cc1cccc(CN2CCC3(CCCN(C(=O)c4ccsc4)C3)C2=O)n1 (configuration not stated)
[1]
  IC50: > 29.5 µM

## Cn1cnc2c1C(COCC1CC1)CN(C(=O)Cc1ccsc1)C2 (configuration not stated)
[1]
  IC50: > 29.5 µM

## CC(C)COCc1cncc2c1CCN(Cc1cnn(C)c1)C2
[1]
  IC50: > 29.5 µM

## Cc1cccc(CN2CC[C@@H]3[C@@H]2CCN3C(=O)c2ccno2)n1
[1]
  IC50: > 29.5 µM

## Cc1cccc(CN2C[C@@H]3COC[C@]3(CNC(=O)c3ccsc3)C2)n1
[1]
  IC50: > 29.5 µM

## Cc1cccc(C(=O)N2C[C@@H](OCc3cccnc3)[C@H]3OCCC[C@@H]32)n1
[1]
  IC50: > 29.5 µM
